Data as given in the NIST ThermoML archive (doi:10.1021/je900124n).
Where “and” joins values, the source holds several entries; their conditions need not be identical. Equal values may be shown once.

Settings: Fluid (supercritical or subcritical phases), Buoyancy - hydrostatic balance with magnetic suspension - two sinkers

CCC [propane]
Settings | mass density
375 K, 4455 kPa | 148.081 kg/m3 [middle of 5 runs]
375 K, 4455.1 kPa | 148.084 kg/m3 and 148.085 kg/m3 and 148.081 kg/m3
375 K, 4456.1 kPa | 148.366 kg/m3 and 148.364 kg/m3 and 148.371 kg/m3
375 K, 4456.2 kPa | 148.361 kg/m3
375 K, 4568.9 kPa | 178.196 kg/m3 [middle of 4 runs]
375 K, 4569 kPa | 178.185 kg/m3
375 K, 4609.7 kPa | 197.026 kg/m3 and 197.015 kg/m3
375 K, 4609.8 kPa | 197.023 kg/m3 [middle of 5 runs]
375 K, 4630.9 kPa | 208.979 kg/m3
375 K, 4631 kPa | 208.963 kg/m3 and 208.962 kg/m3 and 208.991 kg/m3
375 K, 4631.1 kPa | 208.972 kg/m3
375 K, 4648.5 kPa | 219.668 kg/m3
375 K, 4648.6 kPa | 219.65 kg/m3 [middle of 6 runs]
375 K, 4648.7 kPa | 219.656 kg/m3
375 K, 4660.8 kPa | 226.495 kg/m3
375 K, 4660.9 kPa | 226.503 kg/m3 and 226.483 kg/m3
375 K, 4661 kPa | 226.54 kg/m3
375 K, 4694.5 kPa | 243.594 kg/m3 and 243.602 kg/m3 and 243.583 kg/m3
375 K, 4694.6 kPa | 243.603 kg/m3 [middle of 4 runs]
375 K, 4761.6 kPa | 265.09 kg/m3
375 K, 4761.7 kPa | 265.094 kg/m3 and 265.087 kg/m3
375 K, 4761.8 kPa | 265.087 kg/m3
375 K, 4761.9 kPa | 265.101 kg/m3
375 K, 4846.9 kPa | 281.14 kg/m3 [middle of 4 runs]
375 K, 4847.1 kPa | 281.138 kg/m3 and 281.143 kg/m3
375 K, 5843.8 kPa | 337.161 kg/m3
375 K, 5843.9 kPa | 337.161 kg/m3
375 K, 5844 kPa | 337.161 kg/m3 and 337.159 kg/m3
375 K, 5844.1 kPa | 337.162 kg/m3
375 K, 5844.2 kPa | 337.16 kg/m3 and 337.158 kg/m3
375.01 K, 4661 kPa | 226.502 kg/m3
375.01 K, 4847.1 kPa | 281.141 kg/m3 and 281.139 kg/m3
380 K, 320.18 kPa | 4.576 kg/m3
380 K, 320.19 kPa | 4.576 kg/m3
380 K, 569.88 kPa | 8.3091 kg/m3 and 8.3093 kg/m3
380 K, 569.89 kPa | 8.3092 kg/m3 and 8.3093 kg/m3
380 K, 954.79 kPa | 14.3809 kg/m3
380 K, 954.8 kPa | 14.3809 kg/m3
380 K, 954.81 kPa | 14.3809 kg/m3
380 K, 1441 kPa | 22.71 kg/m3
380 K, 1441.3 kPa | 22.7154 kg/m3
380 K, 1442 kPa | 22.7271 kg/m3
380 K, 1442.3 kPa | 22.733 kg/m3
380 K, 1442.6 kPa | 22.7383 kg/m3
380 K, 2208.6 kPa | 37.8037 kg/m3 [middle of 4 runs]
380 K, 2208.8 kPa | 37.8087 kg/m3
380 K, 3020.8 kPa | 57.7697 kg/m3 and 57.7694 kg/m3
380 K, 3020.9 kPa | 57.7728 kg/m3
380 K, 3021 kPa | 57.7733 kg/m3
380 K, 3021.1 kPa | 57.7794 kg/m3
380 K, 3513.2 kPa | 73.3301 kg/m3
380 K, 3513.4 kPa | 73.3336 kg/m3
380 K, 3513.5 kPa | 73.3364 kg/m3
380 K, 3513.6 kPa | 73.3391 kg/m3 and 73.3404 kg/m3 and 73.3402 kg/m3
380 K, 4131.9 kPa | 100.514 kg/m3
380 K, 4132 kPa | 100.514 kg/m3
380 K, 4132.1 kPa | 100.516 kg/m3 and 100.515 kg/m3
380 K, 4703.8 kPa | 148.075 kg/m3
